Patent US9358276B2, “Methods of diagnosing and treating small intestinal bacterial overgrowth (SIBO) and SIBO-related conditions” (Cedars-Sinai Medical Center, priority 1999, dated 2016)

Legend:
[1] = test system: release of 5-HT from the proximal gut; assay: 5-HT released by the proximal gut (ELISA of mid-gut fistula output); format: in vivo, dog; conditions: 5-HT 0.05 mg/kg/h to distal gut; control 156 μg; n=1
Method: To test the hypothesis that fat in the distal gut causes the release of 5-HT in the proximal gut, the amount of 5-HT collected from the output of the mid-gut fistula (proximal gut 5-HT) over a 90-minute period of buffer perfusion through both the duodenal and mid-gut fistulas (2 mL/min); buffer (control) or oleate (60 mM) was administered to the distal gut (n=1). The amount of 5-HT was determined using an ELISA kit specific for 5-HT (Sigma; Graham-Smith, D. G., The carcinoid syndrome, In: Topics in Gastroenterology, Truclove, S. C. and Lee, E. (eds.), Blackwells, London, p. 275 [1977]; Singh, S. M. et al., Concentrations of serotonin in plasma-a test for appendicitis?, Clin. Chem. 34:2572-2574 [1988]). The amount of 5-HT released by the proximal gut increased in response to fat in the distal gut from 100 μg in the control (buffer minus oleate) to 338 μg (buffer plus oleate to distal gut), showing that 5-HT is released in the proximal gut in response to fat in the distal gut. Thus, the release of 5-HT by the proximal gut can serve as a relayed signal for fat in the distal gut. The relayed release of 5-HT in the proximal gut in response to fat in the distal gut is consistent with Example 14(2), showing that slowing of intestinal transit by fat depends on an efferent 5-HT-mediated pathway to the proximal gut.
To test the hypothesis that 5-HT in the distal gut causes the release of 5-HT in the proximal gut, the amount of 5-HT collected from the output at the mid-gut fistula (Proximal gut 5-HT) over a 90-minute period of buffer perfusion through both the duodenal and mid-gut fistulas (2 mL/min each) was compared in the presence or absence of 5-HT (0.05 mg/kg/h) administered to the distal gut (n=1). 5-HT concentration was determined using an ELISA kit specific for 5-HT (Sigma). The amount of 5-HT released by the proximal gut increased from 156 μg in the control (minus distal 5-HT) to 450 μg (plus 5-HT to distal gut), implying that 5-HT is released by the proximal gut in response to 5-HT in the distal gut. Thus, the release of 5-HT by the proximal gut can serve as a relayed signal for distal gut 5-HT. This relayed release of 5-HT in the proximal gut explains the results of Example 14(6) showing that the slowing of intestinal transit by distal gut 5-HT was abolished by ondansetron in the proximal gut (efferent limb of response) as well as in the distal gut (afferent limb of response).
To test the hypothesis that the proximal gut releases 5-HT in response to lipid in the distal gut, we compared the amount of 5-HT in the output of the midgut fistula (i.e., proximal gut 5-HT) with buffered saline (control) or oleate in the distal gut. The amount of 5-HT collected over 90 min was measured using a 5-HT-specific ELISA test kit, as described herein above. Four dogs were tested.
The amount of 5-HT released from the proximal gut in response to intravenous PYY or buffered saline (Control) during buffer perfusion (2 mL/min over 90 minutes) through both the duodenal and mid-gut fistulas was measured to test the hypothesis that intravenous PYY (0.8 mg/kg/h) causes the release of 5-HT in the proximal gut. 5-HT was measured as in Example 14(9) above. The amount of 5-HT released by the proximal gut increased from 140.1 μg (Control) to 463.1 μg in response to intravenous PYY.

intestinal transit = assay: Intestinal transit in multi-fistulated dogs, cumulative % recovery of 99mTc-DTPA; format: in vivo, dog; conditions: for Effect of 5-HT delivered to distal gut on intestinal transit time: n = 2 dogs
From the text: The experiments described below are based on a previously described chronic multi-fistulated dog model, employing surgically fistulated male or female mongrel dogs weighing about 25 kg each. (Lin, H. C. et al., Inhibition of gastric emptying by glucose depends on length of intestine exposed to nutrient, Am. J. Physiol. 256:G404-G411 [1989]). The small intestines of the dogs were each about 300 cm long from the pylorus to the ileal-cecal valve. The duodenal fistula was situated 15 cm from the pylorus; the mid-gut fistula was situated 160 cm from the pylorus. Occluding Foley catheters (balloon catheters that are inflated to produce a water-tight seal with the lumenal surface) were placed into the distal limb of a duodenal fistula and a mid-gut fistula, fat or other test agents were administered lumenally to the thus compartmentalized Aproximal≅ section of the gut, i.e., between the fistulas, or to the compartmentalized Adistal≅ section of the gut, i.e., beyond the mid-gut fistula. Perfusate was pumped into a test section through the catheter at a rate of 2 mL/minute. Test agents were administered along with buffer perfusate, but some test agents were administered intravenously, where specifically noted.
Intestinal transit measurements were made by tracking the movement of a liquid marker across the approximately 150 cm intestinal test segment by delivering about 20 μCi ^99mTc chelated to diethyltriamine pentaacetic acid (DTPA)(Cunningham, K. M. et al., Use of technicium-99m (V)thiocyanate to measure gastric emptying of fat, J. Nucl. Med. 32:878-881 [1991]) as a bolus into the test segment after 60 minutes of a 90-minute perfusion. The output from the mid-gut fistula was collected every 5 min thereafter for 30 minutes, which period is illustrated in FIGS. 9-23. Using a matched dose of ^99mTc to represent the original radioactivity (Johansson, C., Studies of gastrointestinal interactions, Scand. J. Gastroenterol. 9(Suppl 28):1-60 [1974]; Zierler, K., A simplified explanation of the theory of indicator dilution for measurement of fluid flow and volume and other distributive phenomena, Bull. John Hopkins 103:199-217 [1958]), the radioactivity delivered into the animal as well as the radioactivity of the recovered fistula output were all measured using a gamma well counter. After correcting all counts to time zero, intestinal transit was calculated as the cumulative percent recovery of the delivered ^99mTc-DTPA. This method has been well validated over the years and appreciated for its advantage of minimal inadvertent marker loss. […] There was a very high level of marker recovery, with 90% of the marker recovered by 30 minutes and 98% of the marker recovered by 45 minutes.

SIBO [2] = assay: Antibiotic treatment of Crohn's disease subjects with SIBO; format: in vivo, human; conditions: Crohn's subjects; pooled over the named antibiotics
Method: To correct for selection bias, a pilot study was conducted to determine the incidence of SIBO in subjects who had received a suspected diagnosis of Crohn's disease at Cedars-Sinai Medical Center=s IBD Center within the preceding three months.

SIBO [3] = assay: Comparison of antibiotic regimes for eradicating SIBO, follow-up lactulose breath hydrogen test (LBHT); format: in vivo, human; conditions: for % Patients with SIBO Eradicated: follow-up LBHT
Method: Subjects were tested after an overnight fast. […] Each breath sample was then analyzed for hydrogen content with a gas chromatograph (Quintron Model DP, Quintron Instrument Co., Division of E.F. Brewer Co, Menomonee Falls, Wis. 53051), standardized using a QuinGas standard as instructed by the manufacturer. Hydrogen peaks were plotted before and after an antimicrobial treatment regimen for comparison. The normal range for the second hydrogen peak was 0 to 20 ppm. Subjects referred to the Cedars-Sinai GI Motility Program for a lactulose breath hydrogen test (LBHT) to assess SIBO were entered into a database. Those that tested positive for SIBO were given antibiotic treatment by their referring physician and in some cases, returned for a follow-up LBHT to assess eradication of SIBO. During the follow-up LBHT, subjects were asked which antibiotic they were given to treat their SIBO. The eradication rate of each antibiotic was evaluated. Of the 771 subjects in the database, 561 (73%) tested positive for SIBO. […] (See Table 1 below). […] None of the commonly used antibiotics was universally successful in eradicating overgrowth.

ileal brake = conditions: rats, Brown et al. 1993, cited from earlier work

Q: What does the source list for `NCCc1c[nH]c2ccc(O)cc12` [5-HT, 5-hydroxytryptamine]?
A: amount of 5-HT released by the proximal gut [1]: 450 µg; Effect of 5-HT delivered to distal gut on intestinal transit time (intestinal transit; 0.033 mg/kg/h × 90 min, 0 dose 68.5 ± 1.0): 69.6 ± 4.2 min; Effect of 5-HT delivered to distal gut on intestinal transit time (intestinal transit; 0.05 mg/kg/h × 90 min): 33.5 ± 1.5 min; Effect of 5-HT delivered to distal gut on intestinal transit time (intestinal transit; 0.066 mg/kg/h × 90 min): 15.2 ± 0.5 min; marker recovery (intestinal transit; 0.1 mg/kg/h 5-HT into distal gut, Saline-Dist 76.1±1.3%): 35.2±2.3%; marker recovery (intestinal transit; 0.1 mg/kg/h 5-HT into proximal gut, Saline-Prox 85.0±7.3%, four dogs): 20.1±4.5%; Effect of 5-HT delivered to distal gut on intestinal transit time (intestinal transit; 0.1 mg/kg/h × 90 min): 16.1 ± 4.9 min; Effect of 5-HT delivered to distal gut on intestinal transit time (intestinal transit; 0.3 mg/kg/h × 90 min): 73.8 ± 0.6 min; marker recovery (intestinal transit; 5-HT 0.05 mg/kg/h in distal gut, Buffer Control 79.4±4.1%): 37.0±1.8%; marker recovery (intestinal transit; 5-HT 0.05 mg/kg/h to distal gut, Buffer Control 83.3±3.3%, n=2): 36.1±2.3%; proximal intestinal transit, cumulative % marker recovered (intestinal transit; 5-HT 0.1 mg/kg/h distal gut, Saline (i.v.)): 28.27 ± 5.03%; marker recovery (intestinal transit; 5-HT 0.1 mg/kg/h to distal gut, buffer control 76.1±4.7%, four dogs): 35.2±2.2%; marker recovery (intestinal transit; 5-HT in distal gut, 2 mg (0.033 mg/kg/h) over 90 min, buffer 81.2%, n=1): 73.8%; marker recovery (intestinal transit; 5-HT in distal gut, 3 mg (0.05 mg/kg/h), n=1): 53.1%; marker recovery (intestinal transit; 5-HT in distal gut, 4 mg (0.066 mg/kg/h), n=1): 11.6%; marker recovery (intestinal transit; 5-HT in proximal gut, 0.033 mg/kg/h): not significantly different from the buffer control; marker recovery (intestinal transit; 5-HT in proximal gut, 0.05 mg/kg/h): 33.2±14.0%; marker recovery (intestinal transit; 5-HT in proximal gut, 0.066 mg/kg/h, buffer 75.0±4.4%, four dogs): 16.9±+3.7%

Q: Which “improvement in symptoms, breath test negative after antibiotic” value (SIBO [2]) does the source give for `O=C(O)c1cn(C2CC2)c2cc(N3CCNCC3)c(F)cc2c1=O` [Ciprofloxacin, ciprofloxacin] here?
A: 69±27%

Q: And the “% Patients with SIBO Eradicated” value (SIBO [3])?
A: 50%

Q: For `Cc1ncc([N+](=O)[O-])n1CCO` [Flagyl, metronidazole], which “improvement in symptoms, breath test negative after antibiotic” value (SIBO [2]) is on record?
A: 69±27%

Q: What about the “improvement in symptoms, subjects remaining positive on breath test after antibiotic” value (SIBO [2]) of the same compound?
A: 20±0%

Q: And the “success in eradicating SIBO, comparison of antibiotics” value (SIBO [3]; 105 subjects with follow-up LBHT)?
A: relatively poor choice by itself

Q: What about the “% Patients with SIBO Eradicated” value (SIBO [3]) of the same compound?
A: 25%

Q: For `CN1C2CCCC1CC(NC(=O)c1nn(C)c3ccccc13)C2` (centres unmarked) [granisetron], which “ileal brake induced by ileal infusion of lipid” value (ileal brake; subcutaneous administration) is on record?
A: abolished the ileal brake

Q: What about the “intestinal transit of a baked bean meal” value (ileal brake; subcutaneous administration) of the same compound?
A: delayed

Q: For `C=CCN1CC[C@]23c4c5ccc(O)c4O[C@H]2C(=O)CC[C@@]3(O)[C@H]1C5` [naloxone], which ileal brake (ileal brake) is on record?
A: abolish the ileal brake

Q: What about the marker recovery (intestinal transit; 60 mM oleate in proximal gut with 3 mg naloxone) of the same compound?
A: 41.0±5.2%

Q: And the marker recovery (intestinal transit; 60 mM oleate in proximal gut with 6 mg naloxone)?
A: 62.8±8.2%

Q: What about the marker recovery (intestinal transit; 60 mM oleate in proximal gut with 12 mg naloxone) of the same compound?
A: 60.6±6.1%

Q: And the marker recovery (intestinal transit; buffer in proximal gut with 6 mg naloxone, no fat, without naloxone 81.3±6.1%, n=3)?
A: 88.0±1.3%

Q: What about the marker recovery (intestinal transit; distal gut 5-HT + naloxone 6 mg in proximal gut) of the same compound?
A: 90.1±4.6%

Q: What about the marker recovery (intestinal transit; ileal brake + 6 mg naloxone to distal gut) of the same compound?
A: 29.4±5.4%

Q: And the marker recovery (intestinal transit; ileal brake + 6 mg naloxone to proximal gut)?
A: 76.2±5.2%

Q: With `NC[C@H](O)c1ccc(O)c(O)c1` [norepinephrine] as the compound, how does the “Transit Across Proximal Gut (Cumulative % Marker Recovered)” value (intestinal transit; Buffer + NE i.v. 50 mg/30 ml/1.5 h, Buffer Control 68.5 ± 5.0, five dogs) read?
A: 16.3 ± 3.4^ab %

Q: And the marker recovery (intestinal transit; intravenous norepinephrine 0.12 μg/kg/h + normal saline, Buffer Control 76.9%, n=2)?
A: 13.3%

Q: With `CC(C)NCC(O)COc1cccc2ccccc12` (centres unmarked) [propranolol] as the compound, how does the “proximal intestinal transit, cumulative % marker recovered” value (intestinal transit; 60 mM oleate distal gut + Propranolol (i.v.) 50 μg/kg/h) read?
A: 66.42 ± 8.26%

Q: What about the “proximal intestinal transit, cumulative % marker recovered” value (intestinal transit; 5-HT distal gut + Propranolol (i.v.) 50 μg/kg/h) of the same compound?
A: 63.85 ± 8.76%

Q: What about the marker recovery (intestinal transit; distal gut 5-HT + intravenous propranolol 50 μg/kg/h) of the same compound?
A: 77.7±7.6%

Q: And the marker recovery (intestinal transit; distal gut oleate + intravenous propranolol 50 μg/kg/h)?
A: 72.1±4.7%

Q: And the marker recovery (intestinal transit; intravenous PYY + intravenous propranolol 50 μg/kg/h)?
A: 66.3±3.1%
